Patent US12089595B2, “Pseudomonas strains and their metabolites to control plant diseases” (T3 Bioscience, Inc., priority 2020, dated 2024)
≈ marks a conversion by molar mass, not a printed value.

Tested on: Phytophthora infestans Pi 88069
Test: microbe, parasite or virus in culture
Assay type: cell-based

Work on `CSC1=C(C)C(=O)C(=O)NC1=O` [RejuAgro A] yielded an MIC of 40 µg/mL (≈ 216 µM).
